Test results taken from ChEMBL document CHEMBL5260810, “Inhibition of bromodomain-containing protein 9 for the prevention of epigenetically-defined drug resistance” (Bioorg Med Chem Lett, 2017).

Tested on: not listed separately
Experiment: Cytotoxicity against human NCE-G 111 cells measured after 8 days
Assay type: functional, cell-based
Conditions: NCE-G 111, 192 h

Structure (SMILES)	IC50 [µM]
C/C=C/Cn1cc(-c2ccc(C(=O)N3CCOCC3)cc2)c2cc[nH]c2c1=O	20

Tested on: WSUDLCL2
Experiment: Cytotoxicity against human WSUDLCL2 cells measured after 8 days
Assay type: functional, cell-based
Conditions: WSUDLCL2, 192 h

Structure (SMILES)	IC50 [µM]
C/C=C/Cn1cc(-c2ccc(C(=O)N3CCOCC3)cc2)c2cc[nH]c2c1=O	8.31

Tested on: JIMT-1
Experiment: Cytotoxicity against human JIMT-1 cells measured after 8 days
Assay type: functional, cell-based
Conditions: JIMT-1, 192 h

Structure (SMILES)	IC50 [µM]
C/C=C/Cn1cc(-c2ccc(C(=O)N3CCOCC3)cc2)c2cc[nH]c2c1=O	20

Tested on: DLD-1
Experiment: Cytotoxicity against human DLD-1 cells measured after 8 days
Assay type: functional, cell-based
Conditions: DLD-1, 192 h

Structure (SMILES)	IC50 [µM]
C/C=C/Cn1cc(-c2ccc(C(=O)N3CCOCC3)cc2)c2cc[nH]c2c1=O	20

Tested on: not listed separately
Experiment: Cytotoxicity against human NCI-H2803 cells measured after 8 days
Assay type: functional, cell-based
Conditions: NCI-H2803, 192 h

Structure (SMILES)	IC50 [µM]
C/C=C/Cn1cc(-c2ccc(C(=O)N3CCOCC3)cc2)c2cc[nH]c2c1=O	20

Tested on: NCI-H460
Experiment: Cytotoxicity against human NCI-H460 cells measured after 8 days
Assay type: functional, cell-based
Conditions: NCI-H460, 192 h

Structure (SMILES)	IC50 [µM]
C/C=C/Cn1cc(-c2ccc(C(=O)N3CCOCC3)cc2)c2cc[nH]c2c1=O	20

Biological target: T1, Bromodomain-containing protein 2 (Homo sapiens, UniProt P25440)
Experiment: Binding affinity to human partial length BRD2 bromodomain 2 isoform 1 (E348 to D455 residues) expressed in bacterial expression system by BROMOscan assay
Conditions: not given

T1 sequence (P25440 whole entry, the tested form may be a part, canonical isoform): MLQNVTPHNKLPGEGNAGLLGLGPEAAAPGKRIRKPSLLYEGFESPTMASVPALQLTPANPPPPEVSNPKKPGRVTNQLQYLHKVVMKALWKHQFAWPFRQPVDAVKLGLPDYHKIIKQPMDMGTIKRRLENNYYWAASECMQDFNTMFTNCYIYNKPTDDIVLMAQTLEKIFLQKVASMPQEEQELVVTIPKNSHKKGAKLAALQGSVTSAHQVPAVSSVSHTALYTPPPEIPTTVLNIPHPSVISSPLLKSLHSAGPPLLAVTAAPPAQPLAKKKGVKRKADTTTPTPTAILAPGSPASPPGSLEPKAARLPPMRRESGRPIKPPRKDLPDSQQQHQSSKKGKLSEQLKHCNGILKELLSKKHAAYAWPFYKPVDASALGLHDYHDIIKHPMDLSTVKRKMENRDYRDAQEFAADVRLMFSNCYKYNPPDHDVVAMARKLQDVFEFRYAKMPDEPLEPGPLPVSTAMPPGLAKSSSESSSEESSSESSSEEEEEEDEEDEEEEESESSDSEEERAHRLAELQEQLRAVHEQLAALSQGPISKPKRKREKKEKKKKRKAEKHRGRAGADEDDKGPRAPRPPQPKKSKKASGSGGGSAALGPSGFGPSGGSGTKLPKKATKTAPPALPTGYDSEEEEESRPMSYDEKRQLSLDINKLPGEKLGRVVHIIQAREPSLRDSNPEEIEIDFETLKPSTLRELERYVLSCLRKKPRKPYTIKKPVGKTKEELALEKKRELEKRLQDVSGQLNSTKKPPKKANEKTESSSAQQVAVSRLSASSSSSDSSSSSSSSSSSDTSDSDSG

Structure (SMILES)	Kd [µM]
C/C=C/Cn1cc(-c2cc(OC)c(C(C)(C)O)cc2OC)c2cc(C)[nH]c2c1=O	> 10
C/C=C/Cn1cc(-c2ccc(C(=O)N3CCOCC3)cc2)c2cc[nH]c2c1=O	4.3

Biological target: T1, Bromodomain-containing protein 2
Experiment: Binding affinity to human partial length BRD2 bromodomain 1 long isoform (K71 to N194 residues) expressed in bacterial expression system by BROMOscan assay
Conditions: not given

Structure (SMILES)	Kd [µM]
C/C=C/Cn1cc(-c2cc(OC)c(C(C)(C)O)cc2OC)c2cc(C)[nH]c2c1=O	> 10
C/C=C/Cn1cc(-c2ccc(C(=O)N3CCOCC3)cc2)c2cc[nH]c2c1=O	4

Tested on: EB-3
Experiment: Cytotoxicity against human EB-3 cells measured after 8 days
Assay type: functional, cell-based
Conditions: EB-3, 192 h

Structure (SMILES)	IC50 [µM]
C/C=C/Cn1cc(-c2ccc(C(=O)N3CCOCC3)cc2)c2cc[nH]c2c1=O	20

Biological target: Bromodomain-containing protein 8 (Homo sapiens, UniProt Q9H0E9)
Experiment: Binding affinity to BRD8 bromodomain 2 (unknown origin) by BROMOscan assay
Conditions: not given

Sequence of Bromodomain-containing protein 8 (Q9H0E9 whole entry): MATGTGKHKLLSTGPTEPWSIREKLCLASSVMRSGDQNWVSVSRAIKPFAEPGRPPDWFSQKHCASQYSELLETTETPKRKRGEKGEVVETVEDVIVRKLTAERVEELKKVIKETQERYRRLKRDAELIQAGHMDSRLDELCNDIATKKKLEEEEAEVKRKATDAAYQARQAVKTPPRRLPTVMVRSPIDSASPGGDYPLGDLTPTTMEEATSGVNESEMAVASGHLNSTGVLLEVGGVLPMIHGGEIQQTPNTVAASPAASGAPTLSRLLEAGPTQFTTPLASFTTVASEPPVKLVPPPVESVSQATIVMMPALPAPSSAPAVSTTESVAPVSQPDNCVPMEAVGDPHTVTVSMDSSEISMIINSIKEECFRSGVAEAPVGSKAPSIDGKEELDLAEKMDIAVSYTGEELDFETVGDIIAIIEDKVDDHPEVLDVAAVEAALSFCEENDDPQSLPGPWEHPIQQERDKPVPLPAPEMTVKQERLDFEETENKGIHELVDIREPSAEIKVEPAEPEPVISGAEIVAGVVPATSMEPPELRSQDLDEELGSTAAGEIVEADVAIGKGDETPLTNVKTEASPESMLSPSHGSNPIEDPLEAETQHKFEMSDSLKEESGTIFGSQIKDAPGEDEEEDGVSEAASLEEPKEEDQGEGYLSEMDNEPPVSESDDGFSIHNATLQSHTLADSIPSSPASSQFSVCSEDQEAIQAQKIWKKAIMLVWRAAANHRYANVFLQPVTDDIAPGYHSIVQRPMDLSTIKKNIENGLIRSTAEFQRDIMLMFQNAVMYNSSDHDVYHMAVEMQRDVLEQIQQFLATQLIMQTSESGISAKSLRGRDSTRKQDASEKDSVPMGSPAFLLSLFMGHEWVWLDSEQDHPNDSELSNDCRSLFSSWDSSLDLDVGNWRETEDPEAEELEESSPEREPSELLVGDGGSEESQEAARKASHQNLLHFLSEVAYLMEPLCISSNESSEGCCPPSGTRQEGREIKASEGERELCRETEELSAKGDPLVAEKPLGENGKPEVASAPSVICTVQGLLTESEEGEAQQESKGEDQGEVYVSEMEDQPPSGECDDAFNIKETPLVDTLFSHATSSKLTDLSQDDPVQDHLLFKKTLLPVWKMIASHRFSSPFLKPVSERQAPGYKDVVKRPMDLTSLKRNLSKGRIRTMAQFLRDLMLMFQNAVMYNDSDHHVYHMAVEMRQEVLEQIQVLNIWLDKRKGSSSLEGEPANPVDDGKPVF

Structure (SMILES)	Kd [µM]
C/C=C/Cn1cc(-c2cc(OC)c(C(C)(C)O)cc2OC)c2cc(C)[nH]c2c1=O	> 10
C/C=C/Cn1cc(-c2ccc(C(=O)N3CCOCC3)cc2)c2cc[nH]c2c1=O	> 10

Biological target: Transcription initiation factor TFIID subunit 1-like (Homo sapiens, UniProt Q8IZX4)
Experiment: Binding affinity to human partial length TAF1L bromodomain 2 (Q1523 to D1654 residues) expressed in bacterial expression system by BROMOscan assay
Conditions: not given

Sequence of Transcription initiation factor TFIID subunit 1-like (Q8IZX4 whole entry, the tested form may be a part): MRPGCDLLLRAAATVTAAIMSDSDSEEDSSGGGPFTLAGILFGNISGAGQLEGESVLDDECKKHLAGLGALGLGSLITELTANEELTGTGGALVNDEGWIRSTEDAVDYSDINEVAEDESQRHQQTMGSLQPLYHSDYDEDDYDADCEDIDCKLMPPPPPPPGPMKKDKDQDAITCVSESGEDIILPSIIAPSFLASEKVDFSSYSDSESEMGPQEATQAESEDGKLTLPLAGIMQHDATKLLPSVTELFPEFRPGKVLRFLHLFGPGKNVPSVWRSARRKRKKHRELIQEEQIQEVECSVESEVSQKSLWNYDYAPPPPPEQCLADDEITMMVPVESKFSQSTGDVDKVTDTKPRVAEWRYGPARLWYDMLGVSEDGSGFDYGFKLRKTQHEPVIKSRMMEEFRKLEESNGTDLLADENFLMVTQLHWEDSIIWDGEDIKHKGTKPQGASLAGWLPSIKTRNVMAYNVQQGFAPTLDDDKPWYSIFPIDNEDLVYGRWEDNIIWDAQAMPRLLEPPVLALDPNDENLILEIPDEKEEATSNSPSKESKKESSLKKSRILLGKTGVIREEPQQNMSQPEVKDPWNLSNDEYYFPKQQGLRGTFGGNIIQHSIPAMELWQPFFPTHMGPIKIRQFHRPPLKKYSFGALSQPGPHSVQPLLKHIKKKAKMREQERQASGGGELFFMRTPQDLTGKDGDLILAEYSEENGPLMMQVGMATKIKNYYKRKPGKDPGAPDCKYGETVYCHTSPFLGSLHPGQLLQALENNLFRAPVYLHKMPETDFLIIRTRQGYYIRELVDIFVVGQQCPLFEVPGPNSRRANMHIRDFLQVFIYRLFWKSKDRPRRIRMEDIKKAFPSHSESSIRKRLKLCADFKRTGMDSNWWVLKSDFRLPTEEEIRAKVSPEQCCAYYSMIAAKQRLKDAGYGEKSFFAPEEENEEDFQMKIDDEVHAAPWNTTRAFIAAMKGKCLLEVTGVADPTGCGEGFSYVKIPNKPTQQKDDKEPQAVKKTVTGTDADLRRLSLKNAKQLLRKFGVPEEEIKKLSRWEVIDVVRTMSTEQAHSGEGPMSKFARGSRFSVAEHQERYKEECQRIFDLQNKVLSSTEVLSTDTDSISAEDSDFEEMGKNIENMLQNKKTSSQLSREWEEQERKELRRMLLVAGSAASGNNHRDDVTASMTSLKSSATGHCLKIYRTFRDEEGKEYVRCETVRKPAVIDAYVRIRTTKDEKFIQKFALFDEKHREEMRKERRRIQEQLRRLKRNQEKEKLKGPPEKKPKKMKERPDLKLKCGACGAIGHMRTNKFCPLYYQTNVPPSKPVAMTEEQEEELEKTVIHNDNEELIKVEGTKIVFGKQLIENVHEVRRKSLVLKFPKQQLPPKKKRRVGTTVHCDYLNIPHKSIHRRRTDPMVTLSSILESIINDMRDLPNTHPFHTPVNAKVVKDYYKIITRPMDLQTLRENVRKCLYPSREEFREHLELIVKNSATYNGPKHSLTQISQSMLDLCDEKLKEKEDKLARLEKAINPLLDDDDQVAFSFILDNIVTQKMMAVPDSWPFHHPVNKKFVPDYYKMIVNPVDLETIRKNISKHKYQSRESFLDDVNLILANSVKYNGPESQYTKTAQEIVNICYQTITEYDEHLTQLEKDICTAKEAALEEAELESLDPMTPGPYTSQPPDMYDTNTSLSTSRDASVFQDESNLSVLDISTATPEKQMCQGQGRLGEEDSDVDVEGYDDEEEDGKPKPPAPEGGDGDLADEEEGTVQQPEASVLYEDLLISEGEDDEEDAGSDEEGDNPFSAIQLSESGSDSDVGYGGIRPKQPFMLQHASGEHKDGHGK

Structure (SMILES)	Kd [µM]
C/C=C/Cn1cc(-c2cc(OC)c(C(C)(C)O)cc2OC)c2cc(C)[nH]c2c1=O	> 10
C/C=C/Cn1cc(-c2ccc(C(=O)N3CCOCC3)cc2)c2cc[nH]c2c1=O	0.61

Tested on: NCI-H23
Experiment: Cytotoxicity against human NCI-H23 cells measured after 8 days
Assay type: functional, cell-based
Conditions: NCI-H23, 192 h

Structure (SMILES)	IC50 [µM]
C/C=C/Cn1cc(-c2ccc(C(=O)N3CCOCC3)cc2)c2cc[nH]c2c1=O	20

Biological target: Beta-2 adrenergic receptor (Homo sapiens) (UniProt P07550)
Experiment: Displacement of [3H](-)CGP 12177 from human recombinant beta2 adrenoceptor at 10 uM after 120 mins by scintillation counting analysis relative to control
Conditions: not given

Structure (SMILES)	Activity [%]
C/C=C/Cn1cc(-c2ccc(C(=O)N3CCOCC3)cc2)c2cc[nH]c2c1=O	1

Tested on: Ramos
Experiment: Cytotoxicity against human Ramos cells measured after 8 days
Assay type: functional, cell-based
Conditions: 192 h

Structure (SMILES)	IC50 [µM]
C/C=C/Cn1cc(-c2ccc(C(=O)N3CCOCC3)cc2)c2cc[nH]c2c1=O	20

Tested on: MHH-PREB-1
Experiment: Cytotoxicity against human MHH-PREB-1 cells measured after 8 days
Assay type: functional, cell-based
Conditions: MHH-PREB-1, 192 h

Structure (SMILES)	IC50 [µM]
C/C=C/Cn1cc(-c2ccc(C(=O)N3CCOCC3)cc2)c2cc[nH]c2c1=O	20

Tested on: COLO-741
Experiment: Cytotoxicity against human COLO-741 cells measured after 8 days
Assay type: functional, cell-based
Conditions: COLO-741, 192 h

Structure (SMILES)	IC50 [µM]
C/C=C/Cn1cc(-c2ccc(C(=O)N3CCOCC3)cc2)c2cc[nH]c2c1=O	20

Biological target: Dual specificity protein kinase CLK2 (Homo sapiens) (UniProt P49760)
Experiment: Inhibition of CLK2 (unknown origin) at 1 uM relative to control
Conditions: not given

Structure (SMILES)	inhibition [%]
C/C=C/Cn1cc(-c2ccc(C(=O)N3CCOCC3)cc2)c2cc[nH]c2c1=O	2

Tested on: U-937
Experiment: Cytotoxicity against human U-937 cells measured after 8 days
Assay type: functional, cell-based
Conditions: U-937, 192 h

Structure (SMILES)	IC50 [µM]
C/C=C/Cn1cc(-c2ccc(C(=O)N3CCOCC3)cc2)c2cc[nH]c2c1=O	20

Biological target: Serine/threonine-protein kinase 24 (Homo sapiens) (UniProt Q9Y6E0)
Experiment: Inhibition of MST3 (unknown origin) at 1 uM relative to control
Conditions: not given

Sequence of Serine/threonine-protein kinase 24 (Homo sapiens) (Q9Y6E0 whole entry, looked up): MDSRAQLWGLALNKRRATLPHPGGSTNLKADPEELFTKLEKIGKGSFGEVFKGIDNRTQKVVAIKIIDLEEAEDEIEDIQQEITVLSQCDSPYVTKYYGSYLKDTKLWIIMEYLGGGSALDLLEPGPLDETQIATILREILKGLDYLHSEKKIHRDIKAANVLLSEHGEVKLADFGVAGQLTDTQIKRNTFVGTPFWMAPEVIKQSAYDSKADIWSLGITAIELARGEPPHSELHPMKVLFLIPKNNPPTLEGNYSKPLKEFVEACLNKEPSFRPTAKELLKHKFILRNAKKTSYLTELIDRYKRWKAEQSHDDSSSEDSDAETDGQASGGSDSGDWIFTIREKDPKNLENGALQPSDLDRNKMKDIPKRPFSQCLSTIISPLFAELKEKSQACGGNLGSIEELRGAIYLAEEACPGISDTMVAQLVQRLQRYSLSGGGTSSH

Structure (SMILES)	inhibition [%]
C/C=C/Cn1cc(-c2ccc(C(=O)N3CCOCC3)cc2)c2cc[nH]c2c1=O	-2.5

Tested on: not listed separately
Experiment: Cytotoxicity against human PL-21 cells measured after 8 days
Assay type: functional, cell-based
Conditions: PL-21, 192 h

Structure (SMILES)	IC50 [µM]
C/C=C/Cn1cc(-c2ccc(C(=O)N3CCOCC3)cc2)c2cc[nH]c2c1=O	20

Tested on: Hs-578T
Experiment: Cytotoxicity against human Hs-578T cells measured after 8 days
Assay type: functional, cell-based
Conditions: 192 h

Structure (SMILES)	IC50 [µM]
C/C=C/Cn1cc(-c2ccc(C(=O)N3CCOCC3)cc2)c2cc[nH]c2c1=O	20

Tested on: UACC-62
Experiment: Cytotoxicity against human UACC-62 cells measured after 8 days
Assay type: functional, cell-based
Conditions: UACC-62, 192 h

Structure (SMILES)	IC50 [µM]
C/C=C/Cn1cc(-c2ccc(C(=O)N3CCOCC3)cc2)c2cc[nH]c2c1=O	20

Biological target: Histamine H2 receptor (Homo sapiens) (UniProt P25021)
Experiment: Displacement of [125I]APT from human recombinant histamine H2 receptor at 10 uM after 120 mins by scintillation counting analysis relative to control
Conditions: not given

Structure (SMILES)	Activity [%]
C/C=C/Cn1cc(-c2ccc(C(=O)N3CCOCC3)cc2)c2cc[nH]c2c1=O	6

Biological target: Kappa-type opioid receptor (Homo sapiens) (UniProt P41145)
Experiment: Displacement of [3H]U69593 from human kappa receptor at 10 uM after 60 mins by scintillation counting analysis relative to control
Conditions: not given

Structure (SMILES)	Activity [%]
C/C=C/Cn1cc(-c2ccc(C(=O)N3CCOCC3)cc2)c2cc[nH]c2c1=O	6

Tested on: MDA-MB-231
Experiment: Cytotoxicity against human MDA-MB-231 cells measured after 8 days
Assay type: functional, cell-based
Conditions: MDA-MB-231, 192 h

Structure (SMILES)	IC50 [µM]
C/C=C/Cn1cc(-c2ccc(C(=O)N3CCOCC3)cc2)c2cc[nH]c2c1=O	20

Tested on: not listed separately
Experiment: Cytotoxicity against human HT115 cells measured after 8 days
Assay type: functional, cell-based
Conditions: HT115, 192 h

Structure (SMILES)	IC50 [µM]
C/C=C/Cn1cc(-c2ccc(C(=O)N3CCOCC3)cc2)c2cc[nH]c2c1=O	20

Tested on: not listed separately
Experiment: Cytotoxicity against human WSU-FSCCL cells measured after 8 days
Assay type: functional, cell-based
Conditions: 192 h

Structure (SMILES)	IC50 [µM]
C/C=C/Cn1cc(-c2ccc(C(=O)N3CCOCC3)cc2)c2cc[nH]c2c1=O	20

Biological target: Proto-oncogene tyrosine-protein kinase receptor Ret (Homo sapiens) (UniProt P07949)
Experiment: Inhibition of Ret (unknown origin) at 1 uM relative to control
Conditions: not given

Structure (SMILES)	inhibition [%]
C/C=C/Cn1cc(-c2ccc(C(=O)N3CCOCC3)cc2)c2cc[nH]c2c1=O	-0.9

Biological target: D(1A) dopamine receptor (Homo sapiens) (UniProt P21728)
Experiment: Displacement of [3H]-SCH 23390 from human recombinant dopamine D1 receptor at 10 uM by scintillation counting 60 mins analysis relative to control
Conditions: not given

Structure (SMILES)	Activity [%]
C/C=C/Cn1cc(-c2ccc(C(=O)N3CCOCC3)cc2)c2cc[nH]c2c1=O	6

Biological target: Proto-oncogene tyrosine-protein kinase Src (Homo sapiens) (UniProt P12931)
Experiment: Inhibition of Src (unknown origin) at 1 uM relative to control
Conditions: not given

Structure (SMILES)	inhibition [%]
C/C=C/Cn1cc(-c2ccc(C(=O)N3CCOCC3)cc2)c2cc[nH]c2c1=O	0.9

Tested on: NCI-H441
Experiment: Cytotoxicity against human NCI-H441 cells measured after 8 days
Assay type: functional, cell-based
Conditions: NCI-H441, 192 h

Structure (SMILES)	IC50 [µM]
C/C=C/Cn1cc(-c2ccc(C(=O)N3CCOCC3)cc2)c2cc[nH]c2c1=O	20

Tested on: EPLC-272H
Experiment: Cytotoxicity against human EPLC-272H cells measured after 8 days
Assay type: functional, cell-based
Conditions: 192 h

Structure (SMILES)	IC50 [µM]
C/C=C/Cn1cc(-c2ccc(C(=O)N3CCOCC3)cc2)c2cc[nH]c2c1=O	20

Biological target: T2, Peroxisome proliferator-activated receptor gamma (Homo sapiens) (UniProt P37231)
T2 sequence (whole entry): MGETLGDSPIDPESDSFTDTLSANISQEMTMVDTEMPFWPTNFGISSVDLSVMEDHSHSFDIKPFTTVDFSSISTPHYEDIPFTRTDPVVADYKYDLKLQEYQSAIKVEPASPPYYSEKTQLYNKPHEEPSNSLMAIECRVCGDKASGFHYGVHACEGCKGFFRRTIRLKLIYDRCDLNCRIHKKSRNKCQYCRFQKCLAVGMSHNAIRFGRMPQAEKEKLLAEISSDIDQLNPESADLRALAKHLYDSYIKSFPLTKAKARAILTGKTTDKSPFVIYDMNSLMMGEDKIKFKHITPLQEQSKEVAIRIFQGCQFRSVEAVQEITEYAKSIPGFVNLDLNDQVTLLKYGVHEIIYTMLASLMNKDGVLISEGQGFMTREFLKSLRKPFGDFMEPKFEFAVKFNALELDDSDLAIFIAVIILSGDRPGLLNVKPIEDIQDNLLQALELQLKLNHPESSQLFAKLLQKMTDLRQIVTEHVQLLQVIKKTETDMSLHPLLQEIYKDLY
Experiment: Inhibition of human PPARgamma at 10 uM relative to control
Conditions: not given

Structure (SMILES)	inhibition [%]
C/C=C/Cn1cc(-c2ccc(C(=O)N3CCOCC3)cc2)c2cc[nH]c2c1=O	49

Biological target: Bromodomain-containing protein 4 (Homo sapiens, UniProt O60885)
Experiment: Displacement of biotinylated small-molecule ligand from recombinant His-tagged BRD4 bromodomain 1 (unknown origin) measured after 10 mins by TR-FRET assay
Conditions: not given

Structure (SMILES)	IC50 [µM]
C/C=C/Cn1cc(-c2cc(OC)c(C(C)(C)O)cc2OC)c2cc(C)[nH]c2c1=O	> 20
C/C=C/Cn1cc(-c2ccc(C(=O)N3CCOCC3)cc2)c2cc[nH]c2c1=O	3.4

Tested on: HCC78
Experiment: Cytotoxicity against human HCC78 cells measured after 8 days
Assay type: functional, cell-based
Conditions: HCC78, 192 h

Structure (SMILES)	IC50 [µM]
C/C=C/Cn1cc(-c2ccc(C(=O)N3CCOCC3)cc2)c2cc[nH]c2c1=O	20

Tested on: NCI-H2347
Experiment: Cytotoxicity against human NCI-H2347 cells measured after 8 days
Assay type: functional, cell-based
Conditions: NCI-H2347, 192 h

Structure (SMILES)	IC50 [µM]
C/C=C/Cn1cc(-c2ccc(C(=O)N3CCOCC3)cc2)c2cc[nH]c2c1=O	20

Biological target: Bromodomain-containing protein 3 (Homo sapiens, UniProt Q15059)
Experiment: Binding affinity to BRD3 bromodomain 1/2 (unknown origin) by BROMOscan assay
Conditions: not given

Sequence of Bromodomain-containing protein 3 (Q15059 whole entry): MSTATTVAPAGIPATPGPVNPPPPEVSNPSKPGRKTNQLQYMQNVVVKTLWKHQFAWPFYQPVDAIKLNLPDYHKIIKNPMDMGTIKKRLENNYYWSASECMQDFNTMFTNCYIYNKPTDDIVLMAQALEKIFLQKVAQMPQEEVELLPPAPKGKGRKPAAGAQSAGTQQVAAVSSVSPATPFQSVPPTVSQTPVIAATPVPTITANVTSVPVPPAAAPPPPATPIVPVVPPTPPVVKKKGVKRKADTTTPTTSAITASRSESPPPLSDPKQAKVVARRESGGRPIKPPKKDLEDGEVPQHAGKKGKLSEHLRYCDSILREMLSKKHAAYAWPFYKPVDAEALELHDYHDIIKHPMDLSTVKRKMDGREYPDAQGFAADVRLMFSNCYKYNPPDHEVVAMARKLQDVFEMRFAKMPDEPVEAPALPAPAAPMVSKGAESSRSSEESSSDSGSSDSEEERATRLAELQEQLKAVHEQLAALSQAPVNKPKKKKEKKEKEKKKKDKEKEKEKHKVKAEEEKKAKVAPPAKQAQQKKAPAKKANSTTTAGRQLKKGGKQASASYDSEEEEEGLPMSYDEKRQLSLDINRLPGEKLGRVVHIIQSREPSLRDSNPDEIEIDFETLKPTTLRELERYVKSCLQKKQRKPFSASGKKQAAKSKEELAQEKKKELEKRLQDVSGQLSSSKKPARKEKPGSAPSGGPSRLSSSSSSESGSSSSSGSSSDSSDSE

Structure (SMILES)	Kd [µM]
C/C=C/Cn1cc(-c2cc(OC)c(C(C)(C)O)cc2OC)c2cc(C)[nH]c2c1=O	> 10
C/C=C/Cn1cc(-c2ccc(C(=O)N3CCOCC3)cc2)c2cc[nH]c2c1=O	4.4
